Measurements from BigSolDB 2.1.

SMILES	solubility (mole fraction) (in ethanol, 278 K)	solubility (mole fraction) (in ethanol, 283 K)	solubility (mole fraction) (in ethanol, 288 K)	solubility (mole fraction) (in ethanol, 293 K)	solubility (mole fraction) (in ethanol, 298 K)	solubility (mole fraction) (in ethanol, 303.2 K)	solubility (mole fraction) (in ethanol, 308 K)	solubility (mole fraction) (in ethanol, 313 K)	solubility (mole fraction) (in ethanol, 318 K)	solubility (mole fraction) (in ethanol, 323 K)	solubility (mole fraction) (in n-propanol, 278 K)	solubility (mole fraction) (in n-propanol, 283 K)	solubility (mole fraction) (in n-propanol, 288 K)	solubility (mole fraction) (in n-propanol, 293 K)	solubility (mole fraction) (in n-propanol, 298 K)	solubility (mole fraction) (in n-propanol, 303.1 K)	solubility (mole fraction) (in n-propanol, 308.2 K)	solubility (mole fraction) (in n-propanol, 313 K)	solubility (mole fraction) (in n-propanol, 318 K)	solubility (mole fraction) (in n-propanol, 323 K)	other results
O=S(=O)([N-]Cl)c1ccccc1.[Na+]	0.0164	0.0193	0.0224	0.0264	0.031	0.0364	0.0422	0.0486	0.0561	0.066	0.00195	0.00348	0.00536	0.00778	0.0106	0.0142	0.0188	0.0245	0.0307	0.0378	solubility (mole fraction) (in sec-butanol, 278 K): 0.00185; solubility (mole fraction) (in sec-butanol, 283 K): 0.00228; solubility (mole fraction) (in sec-butanol, 288 K): 0.00287; solubility (mole fraction) (in sec-butanol, 293 K): 0.00383; solubility (mole fraction) (in sec-butanol, 298.4 K): 0.00481; solubility (mole fraction) (in sec-butanol, 303.2 K): 0.00585; solubility (mole fraction) (in sec-butanol, 308 K): 0.00706; solubility (mole fraction) (in sec-butanol, 313 K): 0.0091; solubility (mole fraction) (in sec-butanol, 318 K): 0.0117; solubility (mole fraction) (in sec-butanol, 323 K): 0.015; solubility (mole fraction) (in water, 278 K): 0.0074; solubility (mole fraction) (in water, 283 K): 0.00829; solubility (mole fraction) (in water, 288 K): 0.0102; solubility (mole fraction) (in water, 293 K): 0.0127; solubility (mole fraction) (in water, 298 K): 0.0158; solubility (mole fraction) (in water, 303.1 K): 0.0192; solubility (mole fraction) (in water, 308.2 K): 0.0241; solubility (mole fraction) (in water, 313 K): 0.0316; solubility (mole fraction) (in water, 318 K): 0.0421; solubility (mole fraction) (in water, 323 K): 0.0554
Cc1ccc(S(=O)(=O)[N-]Cl)cc1.[Na+]	0.02	0.0221	0.0244	0.0268	0.0299	0.034	0.0388	0.0441	0.0499	0.0564	0.00503	0.00636	0.00776	0.00932	0.0109	0.013	0.0156	0.0191	0.0235	0.0291	solubility (mole fraction) (in sec-butanol, 278 K): 0.00101; solubility (mole fraction) (in sec-butanol, 283 K): 0.00135; solubility (mole fraction) (in sec-butanol, 288 K): 0.00201; solubility (mole fraction) (in sec-butanol, 293 K): 0.00322; solubility (mole fraction) (in sec-butanol, 298.4 K): 0.00464; solubility (mole fraction) (in sec-butanol, 303.2 K): 0.00595; solubility (mole fraction) (in sec-butanol, 308 K): 0.00723; solubility (mole fraction) (in sec-butanol, 313 K): 0.00881; solubility (mole fraction) (in sec-butanol, 318 K): 0.0114; solubility (mole fraction) (in sec-butanol, 323 K): 0.0141; solubility (mole fraction) (in water, 278 K): 0.00684; solubility (mole fraction) (in water, 283 K): 0.008; solubility (mole fraction) (in water, 288 K): 0.00955; solubility (mole fraction) (in water, 293 K): 0.0114; solubility (mole fraction) (in water, 298 K): 0.0138; solubility (mole fraction) (in water, 303.1 K): 0.0171; solubility (mole fraction) (in water, 308.2 K): 0.0218; solubility (mole fraction) (in water, 313 K): 0.0284; solubility (mole fraction) (in water, 318 K): 0.037; solubility (mole fraction) (in water, 323 K): 0.0477
